According to patent publication US20250099420A1, “SMALL MOLECULE MODULATORS OF GPR139 COMPLEX” (University of Florida Research Foundation, Incorporated, priority 2022, published 2025):
Like-named read-outs stand apart in the source and are kept apart here.

Legend:
parental HEK cells = experiment: HEK parental Antagonist Counterscreen Assay (non-transfected cells, acetylcholine control); type: cell-based; conditions: for EC50: Homo sapiens, HEK293, acetylcholine as control, scientific notation, molarity
GPR139 [1] = molecular target: T1, GPR139 (Homo sapiens, UniProt Q6DWJ6)
T1 sequence (Q6DWJ6 1-353): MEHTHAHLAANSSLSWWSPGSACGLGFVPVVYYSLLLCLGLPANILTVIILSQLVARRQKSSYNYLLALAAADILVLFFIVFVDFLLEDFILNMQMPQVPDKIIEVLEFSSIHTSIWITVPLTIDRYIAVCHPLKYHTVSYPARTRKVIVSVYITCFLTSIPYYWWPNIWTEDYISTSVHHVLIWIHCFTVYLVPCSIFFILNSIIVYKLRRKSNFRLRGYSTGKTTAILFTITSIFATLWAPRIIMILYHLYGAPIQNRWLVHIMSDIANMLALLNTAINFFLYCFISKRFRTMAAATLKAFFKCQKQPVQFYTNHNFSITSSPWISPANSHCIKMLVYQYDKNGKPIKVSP
Description: (§1) GPR activity was assessed using a calcium detection assay. GPR139 agonists stimulate an increase in intracellular calcium in HEK-GPR139 cells. Agonists increase the release of intracellular calcium, while antagonists decrease the release of intracellular calcium, as compared to an EC80 stimulation of the know agonist S-JNJ-63533054. The positive control for the agonist mode was cells treated with EC100 of known agonist S-JNJ-63533054. Negative control samples were treated with DMSO. The antagonist high control in cells was EC80 of S-JNJ-63533054+IC100 S-JNJ-3792165, while cells were treated with EC80 of S-JNJ-63533054+DMSO for the low control. Intracellular calcium was measured using Calcium 5.
(§2) HEK cells were transfected the DNA encoding GPR139 and incubated for 24 hours. 3000 cells/well in 3 μL HEPES and 1% DMSO were seeded into 1536-well plates. 3 μL Calcium 5 was then added to each well and cells were incubated for 60 min. at 37° C. in 5% CO2 and 95% relative humidity. Cells were pretreated with 50 nL DMSO (5 min. at room temperature in the dark) to stabilize response and desensitize cells to DMSO. A 5 second basal read was recorded and compounds in 30 nL were added to the cells, followed by a 150 second read.
(§3) B. Antagonist Mode: The “High Control” represented wells containing cells with GPR139+Antagonist IC100+Agonist EC80. “Low Control” represented wells containing cells with GPR139 with EC100 Agonist. “0% control” and sample field represented wells containing cells with GPR139 with EC80 Agonist with DMSO or compounds. The Z′ and S:B for this assay were calculated using the High Control and Low Control wells.
(§4) The HEK parental counterscreen utilized the same cells but not transfected with the plasmid. Acetylcholine was used in place of GPR139 agonist as the control compound. The cells were plated overnight, similar to the HEK antagonist counterscreen protocol.
(§5) The GPR139 Agonist and Antagonist titration assays employed the same reagents, protocols, and detection systems as the primary assays, but tested each as 10 point dose response starting at 676 nM concentration in triplicate with 1:3 dilutions. The HEK parental counterscreens utilized the same cells but not transfected with the plasmid. Acetylcholine was used in place of GPR139 agonist as the control compound. The cells were plated overnight, similar to the HEK antagonist counterscreen protocol.
(§6) For each test compound, percent activation was plotted against compound concentration. A four parameter equation describing a sigmoidal dose-response curve was then fitted with adjustable baseline using Assay Explorer software (Symyx Technologies Inc.).

GPR139 [2] = molecular target: T1, GPR139; experiment: GPR139 Agonist titration / agonist counterscreen assay (calcium detection, HEK-GPR139 cells); type: cell-based; parameters: expressed in transfected cells; host or cells: HEK Aequorin cells, Maxcyte transient transfection; conditions: agonist counterscreen of the antagonists; for EC50: scientific notation, molarity, read-out: GRP139 Agonist activity EC50
Description: GPR activity was assessed using a calcium detection assay. […] Negative control samples were treated with DMSO. […] Intracellular calcium was measured using Calcium 5.

GPR139 [3] = molecular target: T1, GPR139; experiment: GPR139 Antagonist titration assay (calcium detection, HEK-GPR139 cells, vs EC80 of S-JNJ-63533054); conditions: for GPR139 Antagonist Activity Averaged Max % Response (±St. Dev.): activity relative to known control; for GPR139 Antagonist Activity Hill Slope: fitted dose-response curve; for GPR139 Antagonist Activity Lipophilic Efficiency (logD): based on logD; for GPR139 Antagonist Activity Lipophilic Efficiency (logP): based on logP
Description: as §1, §2, §3, §4, §5, §6

GPR139 [4] = molecular target: T1, GPR139; experiment: [3H]JNJ-63533054 radioligand competition binding assay on membranes of HEK293T/17 cells; parameters: HA signal peptide (HASP) (N); expressed in transfected cells; host or cells: HEK293T/17 cells (membrane preparation); conditions: for inhibition at 10 µM: 10 μM of the indicated compound, (10 μM) JNJ-63533054 as printed in title; for Ki: Ki=IC50/(1+C/Kd), membranes of HEK293T/17 cells expressing human GPR139, read-out: Ki ± SEM
Text: Eighteen compounds were selected for additional study. The compounds were re-synthesized and tested in radioligand binding competition assays for their ability to displace [^3H]-labeled reference agonist JNJ-63533054 on GPR139. The GPR139 construct used (pCDNA3.1-HASP-HA-GPR139) contained an N-terminal HA signal peptide (HASP), followed by an HA tag and human GPR139 (NM_001002911.4). HEK293T/17 cells were maintained in Dulbecco's modified Eagle's medium with 10% (v/v) fetal bovine serum, nonessential amino acids, and 1 mM sodium pyruvate.
Competition binding assay: Radioligand binding assay used human GPR139 expressed in HEK293T/17 cells. HEK293T/17 cells were transfected pCDNA3.1-HASP-HA-GPR139. 48 h after, cells were detached from plates by pipetting with PBS, centrifuged at 500×g for 5 min, and then the fluid was aspirated away. The cell pellets were frozen with liquid nitrogen and stored at −80° C. Pellets were homogenized in TE buffer (50 mM Tris-HCl, pH 7.4, 5 mM EDTA) and centrifuged at 1000×g at 4° C. for 5 min. Supernatant was collected and recentrifuged at 30,000×g at 4° C. for 30 min. The pellet was rehomogenized in TE buffer and incubated for 60 minutes at room temperature with eight concentrations of [^3H]JNJ-63533054 (specific activity 24.7 Ci/mmol) ranging from 0.024 nM to 400 nM. The binding reaction was terminated by filtration through GF/C filter (Waterman) followed by washes with cold TE buffer. Filters were dried in a hood overnight followed by the addition of scintillation fluid. Bound radioactivity was counted on a Hidex 600 liquid scintillation counter. […] Nonspecific binding was determined with 10 μM JNJ-63533054. The Kd values of the radioligands and IC50 of the antagonist were calculated by Graphpad Prism. Ki values were calculated as Ki=IC50/(1+C/Kd), where C is concentration of the radioligand.
Various concentrations of selected ligands were then added in the presence of 10 nM [^3H]-JNJ-63533054 and their ability to displace [^3H]labeling on cellular membranes was assessed. FIGS. 3B and 3C present representative data obtained in these experiments. […] The results of these experiments are presented in the Table 3 and confirm selective binding the compounds to GPR139 thereby validating their interaction with the intended target.

| SMILES | GPR139 Antagonist Activity Lipophilic Efficiency (logD) (GPR139 [1]) | GPR139 Antagonist Activity Lipophilic Efficiency (logP) (GPR139 [1]) | GRP139 Agonist activity Averaged Max % Response (±St. Dev.) (GPR139 [2]) | EC50 (GPR139 [2]) | GPR139 Antagonist Activity Ligand Efficiency (GPR139 [3]) | GPR139 Antagonist Activity Averaged Max % Response (±St. Dev.) (GPR139 [3]) | GPR139 Antagonist Activity Hill Slope (GPR139 [3]) | EC50 (GPR139 [3]) | GPR139 Antagonist Activity Lipophilic Efficiency (logD) (GPR139 [3]) | GPR139 Antagonist Activity Lipophilic Efficiency (logP) (GPR139 [3]) | inhibition at 10 µM (GPR139 [4]) | Ki (GPR139 [4]) | HEK antagonist activity Averaged Max % Response (±St. Dev.) (parental HEK cells) | EC50 (parental HEK cells) |
| --- | --- | --- | --- | --- | --- | --- | --- | --- | --- | --- | --- | --- | --- | --- |
| CC(C)C(=O)N1CCN(c2nc(-c3ccccc3)c3c(c2C#N)CCCC3)CC1 [SR-01000000597] | −52.3E−3 | −52.4E−3 | 3.20 ± 6.96% | > 11.2 µM | 0.24 | 54.78 ± 3.56% | 1.21 |  |  |  |  |  | 14.40 ± 10.68% |  |
| CCOC(=O)c1c(C)nc2c(c1-c1ccc(F)cc1)C(=O)CC(c1ccc(Cl)cc1)C2 (stereo not drawn) [SR-01000419112] |  |  | 0.45 ± 5.31% | > 11.7 µM | 0.23 | 67.9 ± 10.41% | 1.28 | 7.8 µM | 0.44 | 0.44 | 102 ± 4.88% | 0.98 ± 0.02 µM | 18.74 ± 4.66% | > 11.7 µM |
| CCOC(=O)C(CC)Oc1ccc2c(C)c(Cc3ccccc3)c(=O)oc2c1 (stereo not drawn) [SR-01000421299] |  |  | 10.58 ± 2.83% | > 9.8 µM | 0.26 | 74.1 ± 13.55% | 1.98 | 7.2 µM | 0.17 | 0.17 | 65 ± 3.44% | 1.81 ± 0.04 µM | 7.76 ± 14.27% | > 9.8 µM |
| CC(=O)N1N=C(c2ccc(C)cc2)CC1c1ccccc1Cl (stereo not drawn) [SR-01000462122] |  |  | −2.6E+0 ± 5.95 ^ % | > 16.2 µM | 0.32 | 79.69 ± 2.61% | 1.19 | 8.7 µM | 1.04 | 1.04 | 22 ± 2.59% | 13.3 ± 0.3 µM | 17.80 ± 3.32% | > 16.2 µM |
| Nc1cccc(C(=O)Nc2cc(O)n(-c3c(Cl)cc(Cl)cc3Cl)n2)c1 [SR-01000514922] |  |  | 1.17 ± 6.37% | > 14.7 µM | 0.28 | 80.63 ± 3.57% | 0.70 | 8.6 µM | 1.63 | 0.55 | 21.8 ± 14.1% | 0.92 ± 0.02 µM | 16.24 ± 5.67% | > 14.7 µM |
| CC1CCCC(NC(=O)c2cccc(NS(=O)(=O)c3ccc(Br)cc3)c2)C1C (stereo not drawn) [SR-01000594343] |  |  | 16.98 ± 6.81% | > 14.1 µM | 0.26 | 64.21 ± 3.85% | −1.40 | 7.7 µM | 0.51 | 0.36 | 87.2 ± 2.37% | 3.05 ± 0.07 µM | 10.38 ± 17.91% | > 14.1 µM |
| COc1ccc(-c2cccc(NS(=O)(=O)c3ccc(I)cc3)c2)nn1 [SR-01000914310] |  |  | 7.64 ± 5.47% | > 14.1 µM | 0.29 | 72.33 ± 6.63% | 1.00 | 6 µM | 1.70 | 1.56 | 72.2 ± 2.78% | 1.06 ± 0.02 µM | 26.24 ± 12.88% | > 14.1 µM |

The next lines start with results.

| GPR139 Antagonist Activity Lipophilic Efficiency (logD) (GPR139 [1]) | GPR139 Antagonist Activity Lipophilic Efficiency (logP) (GPR139 [1]) | GRP139 Agonist activity Averaged Max % Response (±St. Dev.) (GPR139 [2]) | EC50 (GPR139 [2]) | GPR139 Antagonist Activity Ligand Efficiency (GPR139 [3]) | GPR139 Antagonist Activity Averaged Max % Response (±St. Dev.) (GPR139 [3]) | GPR139 Antagonist Activity Hill Slope (GPR139 [3]) | EC50 (GPR139 [3]) | GPR139 Antagonist Activity Lipophilic Efficiency (logD) (GPR139 [3]) | GPR139 Antagonist Activity Lipophilic Efficiency (logP) (GPR139 [3]) | inhibition at 10 µM (GPR139 [4]) | Ki (GPR139 [4]) | SMILES | HEK antagonist activity Averaged Max % Response (±St. Dev.) (parental HEK cells) | EC50 (parental HEK cells) |
| --- | --- | --- | --- | --- | --- | --- | --- | --- | --- | --- | --- | --- | --- | --- |
| 1.95 | 1.94 | 8.07 ± 1.27% | > 14.1 µM | 0.28 | 90.37 ± 1.31% | 0.68 |  |  |  |  |  | Cc1cc(C(=O)N/N=C/c2cn(Cc3ccccc3)c3ccccc23)n[nH]1 [SR-01000110742] | 24.28 ± 7.95% |  |
| 4.02 | 0.66 | 19.36 ± 5.93% | > 14.1 µM | 0.27 | 67.66 ± 7.67% | 2.60 |  |  |  |  |  | O=C(Nc1ccccc1C(=O)O)c1ccc(Oc2ccc([N+](=O)[O-])cc2)cc1 [SR-01000201144] | 81.74 ± 3.36% |  |
|  |  | 7.66 ± 5.35% | > 14.6 µM | 0.30 | 86.87 ± 2.82% | 0.52 | 2.8 µM | 1.14 | 1.14 | 103 ± 1.95% | 1.1 ± 0.02 µM | COc1ccccc1CNC(=O)N1c2ccccc2Sc2ccccc21 [SR-01000506165] | 5.72 ± 9.39% | > 14.6 µM |
| −672.3E−3 | −672.4E−3 | −854E−3 ± 6.10 ^ % | > 14.5 µM | 0.25 | 71.06 ± 5.55% | 0.45 |  |  |  |  |  | O=C(CSc1nc(-c2ccccc2)cn1-c1ccccc1)Nc1ccc(F)cc1 [SR-01000555394] | 31.37 ± 1.24% |  |
| −708.8E−3 | −708.9E−3 | −4.8E+0 ± 5.84 ^ % | > 13.6 µM | 0.24 | 86.26 ± 1.14% | 0.79 |  |  |  |  |  | COc1ccc(-n2cc(-c3ccccc3)nc2SCC(=O)Nc2ccccc2C)cc1 [SR-01000555409] | 31.02 ± 1.30% |  |
| −548.5E−3 | −548.6E−3 | 12.88 ± 6.35% | > 13.2 µM | 0.26 | 78.69 ± 5.10% | 0.44 |  |  |  |  |  | COc1ccccc1-n1cc(-c2ccccc2)nc1SCC(=O)Nc1cccc(C)c1C [SR-01000555431] | 3.15 ± 12.32% |  |
